From PubChem BioAssay AID1259407 (Chemical Carcinogenesis Research Information System (CCRIS), 2018)
Activity calls are given as the source filed them. No rule for the calls is given here.

Tested on: CCRIS mutagenicity, Ames/micronucleus/aberration tests
Experiment: CCRIS mutagenicity studies
[1] = Test System: AMES SALMONELLA TYPHIMURIUM, Strain/Indicator: TA100, Metabolic Activation: RAT LIVER S-9, AROCLOR 1254, Method: STANDARD PLATE
[2] = Test System: AMES SALMONELLA TYPHIMURIUM, Strain/Indicator: TA100, Metabolic Activation: NONE, Method: PREINCUBATION
[3] = Test System: AMES SALMONELLA TYPHIMURIUM, Strain/Indicator: TA100, Metabolic Activation: RAT, LIVER, S-9, AROCLOR 1254, Method: STANDARD PLATE

## Cc1cccc(O)c1N
Test System: AMES SALMONELLA TYPHIMURIUM, Strain/Indicator: TA98, Metabolic Activation: HAMSTER LIVER S-9, AROCLOR 1254, Method: STANDARD PLATE
  mutagenic call: inactive; negative
Test System: AMES SALMONELLA TYPHIMURIUM, Strain/Indicator: TA98, Metabolic Activation: NONE, Method: STANDARD PLATE
  mutagenic call: inactive; negative
Test System: AMES SALMONELLA TYPHIMURIUM, Strain/Indicator: TA98, Metabolic Activation: RAT LIVER S-9, AROCLOR 1254, Method: STANDARD PLATE
  mutagenic call: inactive; negative
Test System: AMES SALMONELLA TYPHIMURIUM, Strain/Indicator: TA100, Metabolic Activation: HAMSTER LIVER S-9, AROCLOR 1254, Method: STANDARD PLATE
  mutagenic call: inactive; negative
Test System: AMES SALMONELLA TYPHIMURIUM, Strain/Indicator: TA100, Metabolic Activation: NONE, Method: STANDARD PLATE
  mutagenic call: inactive; negative
[1]
  mutagenic call: inactive; negative
Test System: AMES SALMONELLA TYPHIMURIUM, Strain/Indicator: TA102, Metabolic Activation: HAMSTER LIVER S-9, AROCLOR 1254, Method: STANDARD PLATE
  mutagenic call: inactive; negative
Test System: AMES SALMONELLA TYPHIMURIUM, Strain/Indicator: TA102, Metabolic Activation: NONE, Method: STANDARD PLATE
  mutagenic call: inactive; negative
Test System: AMES SALMONELLA TYPHIMURIUM, Strain/Indicator: TA102, Metabolic Activation: RAT LIVER S-9, AROCLOR 1254, Method: STANDARD PLATE
  mutagenic call: inactive; negative
Test System: AMES SALMONELLA TYPHIMURIUM, Strain/Indicator: TA1535, Metabolic Activation: HAMSTER LIVER S-9, AROCLOR 1254, Method: STANDARD PLATE
  mutagenic call: inactive; negative
Test System: AMES SALMONELLA TYPHIMURIUM, Strain/Indicator: TA1535, Metabolic Activation: NONE, Method: STANDARD PLATE
  mutagenic call: inactive; negative
Test System: AMES SALMONELLA TYPHIMURIUM, Strain/Indicator: TA1535, Metabolic Activation: RAT LIVER S-9, AROCLOR 1254, Method: STANDARD PLATE
  mutagenic call: inactive; negative
Test System: AMES SALMONELLA TYPHIMURIUM, Strain/Indicator: TA1537, Metabolic Activation: HAMSTER LIVER S-9, AROCLOR 1254, Method: STANDARD PLATE
  mutagenic call: inactive; negative
Test System: AMES SALMONELLA TYPHIMURIUM, Strain/Indicator: TA1537, Metabolic Activation: NONE, Method: STANDARD PLATE
  mutagenic call: inactive; negative
Test System: AMES SALMONELLA TYPHIMURIUM, Strain/Indicator: TA1537, Metabolic Activation: RAT LIVER S-9, AROCLOR 1254, Method: STANDARD PLATE
  mutagenic call: inactive; negative
Test System: MOUSE LYMPHOMA, Strain/Indicator: L5178Y (TK+/TK-), Metabolic Activation: NONE, Method: SUSPENSION/PLATE
  mutagenic call: active; positive. reevaluation of results: positive
Test System: MOUSE LYMPHOMA, Strain/Indicator: L5178Y (TK+/TK-), Metabolic Activation: RAT, LIVER, S-9, AROCLOR 1254, Method: SUSPENSION/PLATE
  mutagenic call: active; positive. reevaluation of results: equivocal

## C=C(C)C=O
Test System: AMES SALMONELLA TYPHIMURIUM, Strain/Indicator: TA100, Metabolic Activation: NONE, Method: MODIFIED LIQUID SUSPENSION
  mutagenic call: active; positive
[2]
  mutagenic call: active; positive
Test System: AMES SALMONELLA TYPHIMURIUM, Strain/Indicator: TA100, Metabolic Activation: RAT LIVER S-9, AROCLOR 1254, Method: PREINCUBATION
  mutagenic call: active; positive
Test System: AMES SALMONELLA TYPHIMURIUM, Strain/Indicator: TA100, Metabolic Activation: RAT, LIVER, S-9, AROCLOR 1254, Method: MODIFIED LIQUID SUSPENSION
  mutagenic call: active; positive
Test System: AMES SALMONELLA TYPHIMURIUM, Strain/Indicator: TA100, Metabolic Activation: RAT, LIVER, S-9, AROCLOR 1254, Method: PREINCUBATION
  mutagenic call: active; positive
Test System: AMES SALMONELLA TYPHIMURIUM, Strain/Indicator: TA104, Metabolic Activation: NONE, Method: PREINCUBATION
  mutagenic call: active; positive
Test System: CHINESE HAMSTER V-79, Strain/Indicator: V-79 (HPRT)/6-THIOGUANINE, Metabolic Activation: NONE
  mutagenic call: active; positive
Test System: CHINESE HAMSTER V-79, Strain/Indicator: V-79 (HPRT)/6-THIOGUANINE, Metabolic Activation: RAT LIVER S-9, AROCLOR 1254
  mutagenic call: inactive; negative

## COc1ccc(-c2oc3ccccc3c(=O)c2N)cc1N
[1]
  mutagenic call: active; positive
Test System: AMES SALMONELLA TYPHIMURIUM, Strain/Indicator: YG1042, Metabolic Activation: RAT LIVER S-9, AROCLOR 1254, Method: STANDARD PLATE
  mutagenic call: active; positive

## c1ccc2cc3c(cc2c1)-c1cccc2cccc-3c12
Test System: AMES SALMONELLA TYPHIMURIUM, Strain/Indicator: TA98, Metabolic Activation: HAMSTER, LIVER, S-9, AROCLOR 1254 (30%), Method: PREINCUBATION
  mutagenic call: active; positive
Test System: AMES SALMONELLA TYPHIMURIUM, Strain/Indicator: TA98, Metabolic Activation: NONE, Method: PREINCUBATION
  mutagenic call: inactive; negative
Test System: AMES SALMONELLA TYPHIMURIUM, Strain/Indicator: TA98, Metabolic Activation: RAT, LIVER, S-9, AROCLOR 1254 (30%), Method: PREINCUBATION
  mutagenic call: active; positive
Test System: AMES SALMONELLA TYPHIMURIUM, Strain/Indicator: TA100, Metabolic Activation: HAMSTER, LIVER, S-9, AROCLOR 1254 (30%), Method: PREINCUBATION
  mutagenic call: active; positive
[2]
  mutagenic call: inactive; negative
Test System: AMES SALMONELLA TYPHIMURIUM, Strain/Indicator: TA100, Metabolic Activation: RAT, LIVER, S-9, AROCLOR 1254
  mutagenic call: active; positive
Test System: AMES SALMONELLA TYPHIMURIUM, Strain/Indicator: TA100, Metabolic Activation: RAT, LIVER, S-9, AROCLOR 1254 (30%), Method: PREINCUBATION
  mutagenic call: active; positive
[3]
  mutagenic call: active; positive

## Cc1ccc2c(c1)-c1ccccc1C2C (configuration not stated)
Test System: AMES SALMONELLA TYPHIMURIUM, Strain/Indicator: TA98, Metabolic Activation: RAT, LIVER, S-9, AROCLOR 1254, Method: STANDARD PLATE
  mutagenic call: active; positive
[3]
  mutagenic call: active; positive
